Experimental data: patent publication US11957677B2, “Cancer treatment using FGFR inhibitors and PLK1 inhibitors” (Cardiff Oncology, Inc., priority 2021, dated 2024)

Columns and labels:
[1] = tested on: γ-H2AX; assay: γ-H2AX by Western Blot; format: cell-based; details: NCI-H1703
[2] = tested on: γ-H2AX; assay: γ-H2AX positive cells by flow cytometry; format: cell-based; details: NCI-H1703
Text: To confirm the above observations, percentage of γ-H2AX positive cells was quantified using flow cytometry.

[3] = biological target: IGFR (Homo sapiens, UniProt P08069); details: cellular; read-out: IC50, cellular IGFR ligand-induced phosphorylation; cited from earlier work
[4] = tested on: FGFR1-amplified lung cancer cells; details: in combination with FGFR inhibitors; cited from earlier work
[5] = tested on: NCI-H1703 cells; assay: colony forming capacity, crystal violet staining; format: cell-based; details: onvansertib 50 nM, AZD4547 250 nM
Text: The culture media was changed again after 3 days. After culturing for another 6 days, the NCI-H1703 cells were stained with crystal violet. The workflow of determining colony forming capacity is illustrated in FIG. 21. […] The colonies formed by NCI-H1703 cells shown in FIG. 22 were quantified as indicated by percentage relative intensity (FIG. 23).

[6] = tested on: NCI-H1703 cells; assay: cell cycle analysis; format: cell-based; details: 48 hrs, onvansertib 50 nM, AZD4547 2.5 μM
Description: (§1) The percentage of pHH3 positive cells was also determined using flow cytometry at 24 h and 48 h.

[7] = tested on: NPM at Threonine 199; assay: phosphorylation of NPM at Threonine 199; format: cell-based; details: NCI-H1703; 6 hrs, 24 hrs and 48 hrs
[8] = tested on: phosphorylated histone H3 (pHH3); assay: pHH3 positive cells by flow cytometry; format: cell-based; details: NCI-H1703
Description: as §1

[9] = tested on: cleaved caspase-3; assay: cleaved-caspase-3 positive cells by flow cytometry; format: cell-based; details: NCI-H1703; 24 h and 48 h; onvansertib 50 nM, AZD4547 2.5 μM
[10] = tested on: cleaved caspase-3; assay: cleaved caspase-3 by Western Blot; format: cell-based; details: NCI-H1703; 24 h and 48 h; onvansertib 50 nM, AZD4547 2.5 μM
Description: In addition, the amounts of cleaved caspase-3 and cleaved PARP were determined at 6 h, 24 h and 48 h after different treatments using Western Blot.

[11] = patients, cited from earlier work
[12] = biological target: PLK1 (Homo sapiens, UniProt P53350); details: among a panel of 296 kinases, including other PLK members; cited from earlier work
[13] = tested on: AML cell lines; details: cited from earlier work
[14] = time point not given, compared to cells receiving no treatment
[15] = time point not given, compared to DMSO
[16] = 24 h and 48 h, onvansertib 50 nM, AZD4547 2.5 μM

Sequence of PLK1 (P53350 whole entry): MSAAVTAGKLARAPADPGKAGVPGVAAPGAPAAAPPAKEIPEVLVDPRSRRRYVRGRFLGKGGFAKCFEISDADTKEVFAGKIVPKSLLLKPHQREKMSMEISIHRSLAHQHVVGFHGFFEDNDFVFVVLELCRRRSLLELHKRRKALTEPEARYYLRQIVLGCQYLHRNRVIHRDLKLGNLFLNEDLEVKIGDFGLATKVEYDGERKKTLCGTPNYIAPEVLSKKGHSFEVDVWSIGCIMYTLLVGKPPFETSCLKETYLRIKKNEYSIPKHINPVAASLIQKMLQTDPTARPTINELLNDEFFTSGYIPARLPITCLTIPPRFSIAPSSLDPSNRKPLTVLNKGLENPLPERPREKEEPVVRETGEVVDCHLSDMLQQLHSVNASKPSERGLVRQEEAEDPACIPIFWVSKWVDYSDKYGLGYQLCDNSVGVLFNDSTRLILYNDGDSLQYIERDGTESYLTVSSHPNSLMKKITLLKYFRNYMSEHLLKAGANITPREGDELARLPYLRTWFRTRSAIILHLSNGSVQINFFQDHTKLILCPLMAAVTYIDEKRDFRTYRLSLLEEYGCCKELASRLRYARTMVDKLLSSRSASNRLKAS
Sequence of IGFR (P08069 31-1367): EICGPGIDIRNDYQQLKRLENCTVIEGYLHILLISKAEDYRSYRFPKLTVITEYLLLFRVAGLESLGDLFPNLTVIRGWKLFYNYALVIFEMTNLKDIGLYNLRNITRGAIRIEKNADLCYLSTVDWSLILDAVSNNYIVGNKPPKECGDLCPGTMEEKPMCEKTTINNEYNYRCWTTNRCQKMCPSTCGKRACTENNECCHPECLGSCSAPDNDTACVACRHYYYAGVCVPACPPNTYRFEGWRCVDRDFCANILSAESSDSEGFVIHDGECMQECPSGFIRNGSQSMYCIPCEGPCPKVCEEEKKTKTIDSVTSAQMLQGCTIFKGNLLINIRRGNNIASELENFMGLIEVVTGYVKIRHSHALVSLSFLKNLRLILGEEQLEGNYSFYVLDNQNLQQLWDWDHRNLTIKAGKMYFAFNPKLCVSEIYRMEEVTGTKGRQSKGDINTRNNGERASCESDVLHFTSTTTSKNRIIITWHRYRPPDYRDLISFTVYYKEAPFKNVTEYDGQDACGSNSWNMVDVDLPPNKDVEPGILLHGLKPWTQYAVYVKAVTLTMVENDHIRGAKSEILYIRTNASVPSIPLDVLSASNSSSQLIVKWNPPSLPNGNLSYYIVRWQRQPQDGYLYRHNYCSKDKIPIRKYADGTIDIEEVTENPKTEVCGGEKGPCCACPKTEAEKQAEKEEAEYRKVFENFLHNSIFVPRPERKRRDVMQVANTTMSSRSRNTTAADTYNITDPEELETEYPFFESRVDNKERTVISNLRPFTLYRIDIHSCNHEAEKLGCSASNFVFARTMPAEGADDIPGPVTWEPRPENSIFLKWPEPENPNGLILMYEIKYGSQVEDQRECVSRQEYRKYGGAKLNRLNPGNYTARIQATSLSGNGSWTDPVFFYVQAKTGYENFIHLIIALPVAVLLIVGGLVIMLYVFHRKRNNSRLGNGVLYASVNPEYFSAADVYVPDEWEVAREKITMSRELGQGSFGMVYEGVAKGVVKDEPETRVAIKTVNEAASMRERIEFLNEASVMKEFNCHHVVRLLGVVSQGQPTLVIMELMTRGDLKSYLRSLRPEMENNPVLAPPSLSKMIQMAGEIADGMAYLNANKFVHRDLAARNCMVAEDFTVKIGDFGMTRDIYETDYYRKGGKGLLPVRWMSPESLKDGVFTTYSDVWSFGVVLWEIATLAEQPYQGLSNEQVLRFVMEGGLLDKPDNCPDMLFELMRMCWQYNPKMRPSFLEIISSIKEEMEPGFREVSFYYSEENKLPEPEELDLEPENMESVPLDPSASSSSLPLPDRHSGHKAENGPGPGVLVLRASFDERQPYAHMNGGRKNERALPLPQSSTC

Structure (SMILES) | amounts of γ-H2AX [1, 14] | percentage of γ-H2AX positive cells [2, 15] | IC50 [3] [nM] | antiproliferative effects and apoptosis [4] | colony-forming capacity [5] | % of cells in G2 and/or mitotic stages [6] | phosphorylation of NPM at Threonine 199 [7] | percentage of pHH3 positive cells ([8]; 24 h) | percentage of pHH3 positive cells ([8]; 48 h) | percentage of cleaved-caspase-3 positive cells [9] | amount of cleaved caspase-3 [10] | amounts of γ-H2AX [1, 16] | percentage of γ-H2AX positive cells [2, 16] | primary dose-limiting toxicities ([11]; phase I dose-escalation) | recovery of hematologic toxicities ([11]; reversible toxicities, phase I) [weeks] | specificity for PLK1 [12] | inhibition of cell proliferation [13]
COc1cc(CCc2cc(NC(=O)c3ccc(N4C[C@@H](C)N[C@@H](C)C4)cc3)n[nH]2)cc(OC)c1 [AZD4547, N-[5-[2-(3,5-Dimethoxyphenyl)ethyl]-2H-pyrazol-3-yl]-4-(3,5-diemthylpiperazin-1-yl)benzamide] | about the same | about the same | 828 |  |  |  |  |  |  |  |  |  |  |  |  |  | 
CC[C@@H]1C(=O)N(C)c2cnc(Nc3ccc(C(=O)NC4CCN(C)CC4)cc3OC)nc2N1C1CCCC1 [BI2536] |  |  |  | synergistically enhances antiproliferative effects and apoptosis |  |  |  |  |  |  |  |  |  |  |  |  | 
CN1CCN(c2ccc(OC(F)(F)F)c(Nc3ncc4c(n3)-c3c(c(C(N)=O)nn3CCO)CC4)c2)CC1 [onvansertib, 1-(2-hydroxyethyl)-8-{[5-(4-methylpiperazin-1-yl)-2-(trifluoromethoxy)phenyl]amino}-4,5-dihydro-1H-pyrazolo[4,3-h] quinazoline-3-carboxamide] | about the same | about the same |  |  | reduced the colony-forming capacity | increased the % of cells in G2 and/or mitotic stages | Increased phosphorylation of NPM | increased the percentage of pHH3 positive cells | increased the percentage of pHH3 positive cells to a similar extent | increased the percentage of cleaved-caspase-3 positive cells | increased the cleaved caspase-3 | increased the γ-H2AX | increased the percentage of γ-H2AX positive cells | neutropenia and thrombocytopenia | ≤ 3 | high specificity | inhibited cell proliferation at nanomolar concentrations
